Measured values taken from ChEMBL document CHEMBL5316285 (J Med Chem, 2023).
pIC50: −log10 of the molar value. Active and inactive are the calls of the source. The calls are words filed in the database; no cut-off is given here.

Experiments:
A2780 [1] = test: Antitumor activity against human A2780 cells xenografted in nude mouse assessed as reduction in NAMPT protein level in tumor tissue at 2 uM/Kg, IV after 3 days by immuno histochemical analysis; type: functional, cell-based; settings: time 3.0 day
[2] = Toxicity in nude mouse xenografted with human A2780 cells assessed as pathological damage in spleen at 2 uM/Kg, IV once every 3 days upto 21 days by hematoxylin and eosin staining analysis; type: tissue-based; settings: 504 h, time 21 day
[3] = Toxicity in nude mouse xenografted with human A2780 cells assessed as pathological damage in kidney at 2 uM/Kg, IV once every 3 days upto 21 days by hematoxylin and eosin staining analysis; type: tissue-based; settings: 504 h, time 21 day
[4] = target: T1, Nicotinamide phosphoribosyltransferase (Homo sapiens, UniProt P43490); test: (§1) Competitive binding activity at NAMPT in human A2780 cells assessed as blocking of NAMPT degradation pretreated with MG132 for 2 hrs followed by compound addition at 10 nM measured after 24 hrs by Western blotting analysis; type: cell-based
Target sequence in this assay (P43490 whole entry, looked up): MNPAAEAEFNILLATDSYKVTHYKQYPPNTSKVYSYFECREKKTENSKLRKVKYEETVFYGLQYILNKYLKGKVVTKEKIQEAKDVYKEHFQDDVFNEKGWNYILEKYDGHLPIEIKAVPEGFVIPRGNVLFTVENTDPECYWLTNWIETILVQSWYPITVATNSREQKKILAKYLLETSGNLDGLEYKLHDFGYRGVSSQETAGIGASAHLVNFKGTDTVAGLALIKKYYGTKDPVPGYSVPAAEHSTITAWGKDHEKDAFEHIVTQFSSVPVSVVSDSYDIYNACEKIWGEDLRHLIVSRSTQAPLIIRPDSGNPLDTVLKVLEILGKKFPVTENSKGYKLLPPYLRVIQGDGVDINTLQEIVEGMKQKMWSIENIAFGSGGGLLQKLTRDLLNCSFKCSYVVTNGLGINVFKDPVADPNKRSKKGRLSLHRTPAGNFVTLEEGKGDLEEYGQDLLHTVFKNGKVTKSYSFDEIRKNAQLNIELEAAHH

[5] = target: T2, von Hippel-Lindau disease tumor suppressor/Nicotinamide phosphoribosyltransferase (Homo sapiens, UniProt P43490+P40337); test: Protac activity at VHL/NAMPT in human A2780 cells assessed as degradation of NAMPT using NAM as substrate preincubated for 5 mins followed by substrate addition measured after 5 mins in presence of ATP by luminesence based microplate reader analysis; type: cell-based
Target sequence in this assay (P43490 whole entry): as the sequence (P43490 whole entry, looked up) above
Target sequence in this assay (P40337 whole entry): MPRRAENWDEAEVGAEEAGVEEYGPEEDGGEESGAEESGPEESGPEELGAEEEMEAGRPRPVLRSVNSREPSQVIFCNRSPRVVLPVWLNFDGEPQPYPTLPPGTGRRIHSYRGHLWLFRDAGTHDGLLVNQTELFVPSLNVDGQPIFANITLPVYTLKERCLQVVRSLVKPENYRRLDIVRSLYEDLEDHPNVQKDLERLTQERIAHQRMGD

[6] = target: T1, Nicotinamide phosphoribosyltransferase; test: Competitive binding activity at NAMPT in human A2780 cells assessed as blocking of NAMPT degradation pretreated with carfilzomib for 2 hrs followed by compound addition at 10 nM measured after 24 hrs by Western blotting analysis; type: cell-based
Target sequence in this assay (P43490 whole entry, looked up): as the sequence (P43490 whole entry, looked up) above

[7] = target: von Hippel-Lindau disease tumor suppressor (Homo sapiens) (UniProt P40337); test: Binding affinity to VHL in human A2780 cells incubated at 10 uM measured from 63 to 75 degreeC for 7 hrs by cellular thermal shift assay; type: cell-based
Chain of von Hippel-Lindau disease tumor suppressor (Homo sapiens) (P40337 whole entry, looked up): as the sequence (P40337 whole entry) above

A2780 [8] = test: Downregulation of NAD+ in human A2780 cells treated upto 1000 nM for 24 hrs by chromogen based assay; type: functional, cell-based
[9] = Toxicity in nude mouse xenografted with human A2780 cells assessed as pathological damage in heart at 2 uM/Kg, IV once every 3 days upto 21 days by hematoxylin and eosin staining analysis; type: tissue-based; settings: 504 h, time 21 day
[10] = Toxicity in nude mouse xenografted with human A2780 cells assessed as pathological damage in liver at 2 uM/Kg, IV once every 3 days upto 21 days by hematoxylin and eosin staining analysis; type: tissue-based; settings: 504 h, time 21 day
[11] = Toxicity in nude mouse xenografted with human A2780 cells assessed as loss in body weight at 2 uM/Kg, IV once every 3 days upto 21 days; settings: 504 h, time 21 day
[12] = target: T1, Nicotinamide phosphoribosyltransferase; test: Competitive binding activity at NAMPT in human A2780 cells assessed as blocking of NAMPT degradation pretreated with MLN4924 for 2 hrs followed by compound addition at 10 nM measured after 24 hrs by Western blotting analysis; type: cell-based
Target sequence in this assay (P43490 whole entry, looked up): as the sequence (P43490 whole entry, looked up) above

[13] = AUC in Sprague-Dawley rat plasma at 5 mg/kg, iv after 0.083 to 24 hrs by LC-MS/MS analysis; type: ADME, organism-based; design: dose 5 mg/kg, time upper 24 hrs, time lower 0.083 hrs, route iv
[14] = target: T1, Nicotinamide phosphoribosyltransferase; test: Inhibition of NAMPT (unknown origin) using NAM as substrate preincubated for 5 mins followed by substrate addition measured after 15 mins in presence of ATP by fluorescence based microplate reader analysis
Target sequence in this assay (P43490 whole entry): as the sequence (P43490 whole entry, looked up) above

[15] = target: T1, Nicotinamide phosphoribosyltransferase; test: Binding affinity to NAMPT in human A2780 cells incubated at 10 uM measured from 63 to 75 degreeC for 7 hrs by cellular thermal shift assay; type: cell-based
Target sequence in this assay (P43490 whole entry, looked up): as above

[16] = target: T1, Nicotinamide phosphoribosyltransferase; test: Competitive binding activity at NAMPT in human A2780 cells assessed as blocking of NAMPT degradation pretreated with epoxomicin for 2 hrs followed by compound addition at 10 nM measured after 24 hrs by Western blotting analysis; type: cell-based
Target sequence in this assay (P43490 whole entry, looked up): as above

[17] = Half life in mouse plasma at 5 mg/kg, iv by LC-MS/MS analysis; type: ADME, organism-based
[18] = target: T2, von Hippel-Lindau disease tumor suppressor/Nicotinamide phosphoribosyltransferase; test: Protac activity at VHL/NAMPT in human A2780 cells assessed as reduction of NAMPT protein level at greater than 0.37 uM measured after 24 hrs by Western blotting analysis; type: cell-based
Target sequence in this assay (P40337 whole entry, looked up): as the sequence (P40337 whole entry) above
Target sequence in this assay (P43490 whole entry, looked up): as the sequence (P43490 whole entry, looked up) above

[19] = target: T1, Nicotinamide phosphoribosyltransferase; test: Competitive binding activity at NAMPT in human A2780 cells assessed as blocking of NAMPT degradation pretreated with 200 nM of 1-(4-(piperidin-1-ylsulfonyl)phenyl)-3-(pyridin-3-ylmethyl)thiourea for 2 hrs followed by compound addition at 10 nM measured after 24 hrs by Western blotting analysis; type: cell-based
Target sequence in this assay (P43490 whole entry, looked up): as above

[20] = AUC in mouse plasma at 5 mg/kg, iv after 0.083 to 24 hrs by LC-MS/MS analysis; type: ADME, organism-based; design: time lower 0.083 hrs, dose 5 mg/kg, time upper 24 hrs, route iv
[21] = MRT in Sprague-Dawley rat plasma at 5 mg/kg, iv after 0.083 to 24 hrs by LC-MS/MS analysis; type: ADME, organism-based; settings: time 0.083-24 hrs
[22] = target: T2, von Hippel-Lindau disease tumor suppressor/Nicotinamide phosphoribosyltransferase; test: Protac activity at VHL/NAMPT in human A2780 cells assessed as induction of NAMPT degradation measured at 0.005 to 10 microM after 24 hrs by Western blotting analysis; type: cell-based; settings: dose 0.005-10 µM
Target sequence in this assay (P40337 whole entry, looked up): as the sequence (P40337 whole entry) above
Target sequence in this assay (P43490 whole entry, looked up): as the sequence (P43490 whole entry, looked up) above

[23] = target: T2, von Hippel-Lindau disease tumor suppressor/Nicotinamide phosphoribosyltransferase; test: Protac activity at VHL/NAMPT in human A2780 cells assessed as induction of NAMPT degradation measured at 10 nM; type: cell-based; settings: time <= 24.0 hrs, TDE = time-dependent effect
Target sequence in this assay (P40337 whole entry, looked up): as the sequence (P40337 whole entry) above
Target sequence in this assay (P43490 whole entry, looked up): as the sequence (P43490 whole entry, looked up) above

A2780 [24] = test: Antitumor activity against human A2780 cells xenografted in nude mouse assessed as necrotic tumor cells at 2 uM/Kg, IV once every 3 days upto 21 days relative by hematoxylin and eosin staining analysis; type: functional, cell-based; settings: time 21.0 day
[25] = target: T1, Nicotinamide phosphoribosyltransferase; test: as §1, with “100 uM of (2S,4R)-1-((S)-2-acetamido-3,3-dimethylbutanoyl)-4-hydroxy-N-((S)-1-(4-(4-methylthiazol-5-yl)phenyl)ethyl)pyrrolidine-2-carboxamide” for “MG132”; type: cell-based
[26] = AUC in Sprague-Dawley rat plasma at 20 mg/kg, IP after 0.083 to 24 hrs by LC-MS/MS analysis; type: ADME, organism-based; design: dose 20 mg/kg, time 0.083-24 hrs, route ip
[27] = Tmax in Sprague-Dawley rat plasma at 5 mg/kg, iv by LC-MS/MS analysis; type: ADME, organism-based; settings: time 0.083-24 hrs
[28] = target: T2, von Hippel-Lindau disease tumor suppressor/Nicotinamide phosphoribosyltransferase; test: Protac activity at VHL/NAMPT in human A2780 cells assessed as reduction of NAMPT protein level at 10 nM measured after 24 hrs by Western blotting analysis; type: cell-based
Target sequence in this assay (P40337 whole entry, looked up): as the sequence (P40337 whole entry) above
Target sequence in this assay (P43490 whole entry, looked up): as the sequence (P43490 whole entry, looked up) above

[29] = Cmax in Sprague-Dawley rat plasma at 5 mg/kg, iv after 0.083 to 24 hrs by LC-MS/MS analysis; type: ADME, organism-based; design: dose 5 mg/kg, time upper 24 hrs, time lower 0.083 hrs, route iv
[30] = Half life in Sprague-Dawley rat plasma at 20 mg/kg, IP by LC-MS/MS analysis; type: ADME, organism-based
[31] = Cmax in mouse plasma at 5 mg/kg, iv after 0.083 to 24 hrs by LC-MS/MS analysis; type: ADME, organism-based; design: time upper 24 hrs, dose 5 mg/kg, time lower 0.083 hrs, route iv
[32] = Tmax in Sprague-Dawley rat plasma at 20 mg/kg, IP by LC-MS/MS analysis; type: ADME, organism-based
CT26 = test: Antiproliferative activity against mouse CT26 cells; type: functional, cell-based
A2780 [33] = test: Antitumor activity against human A2780 cells xenografted in nude mouse assessed as tumor growth inhibition at 2 uM/Kg, IV once every 3 days upto 21 days relative to control; type: functional; settings: time 21 day, at 2 µmol/kg
A2780 [34] = test: Antitumor activity against human A2780 cells xenografted in nude mouse assessed as reduction in Ki67 expression in tumor tissue at 2 uM/Kg, IV once every 3 days upto 21 days relative by immuno histochemical analysis; type: functional, cell-based; settings: time 21.0 day
A2780 [35] = test: Antiproliferative activity against human A2780 cells incubated for 72 hrs in carbon-dioxide atmosphere measured by cell counting kit-8 method; type: functional, cell-based; settings: A2780, 72 h
[36] = Cmax in mouse plasma at 20 mg/kg, IP after 0.083 to 24 hrs by LC-MS/MS analysis; type: ADME, organism-based; design: time upper 24 hrs, time lower 0.083 hrs, dose 20 mg/kg, route ip
[37] = Retinal toxicity in nude mouse xenografted with human A2780 cells at 2 uM/Kg, IV once every 3 days upto 21 days by microscopic analysis; settings: 504 h, time 21 day
[38] = Half life in Sprague-Dawley rat plasma at 5 mg/kg, iv by LC-MS/MS analysis; type: ADME, organism-based
[39] = Toxicity in nude mouse xenografted with human A2780 cells assessed as pathological damage in lung at 2 uM/Kg, IV once every 3 days upto 21 days by hematoxylin and eosin staining analysis; type: tissue-based; settings: 504 h, time 21 day
[40] = Cmax in Sprague-Dawley rat plasma at 20 mg/kg, IP after 0.083 to 24 hrs by LC-MS/MS analysis; type: ADME, organism-based; design: time lower 0.083 hrs, dose 20 mg/kg, time upper 24 hrs, route ip
[41] = MRT in Sprague-Dawley rat plasma at 20 mg/kg, IP after 0.083 to 24 hrs by LC-MS/MS analysis; type: ADME, organism-based; settings: time 0.083-24 hrs

Structure (SMILES): Cc1ncsc1-c1ccc([C@H](C)NC(=O)[C@@H]2C[C@@H](O)CN2C(=O)[C@@H](NC(=O)CCCCCCCCN2CCN(S(=O)(=O)c3ccc(NC(=O)NCc4cccnc4)cc3)CC2)C(C)(C)C)cc1
- Activity (A2780 [1]): Active
- Activity [2]: Non-Toxic
- Activity [3]: Non-Toxic
- Activity [4]: Active
- DC50 [5]: < 0.17 nM
- Activity [6]: Active
- Activity [7]: Active
- Activity (A2780 [8]): Active
- Activity [9]: Non-Toxic
- Activity [10]: Non-Toxic
- Activity [11]: Non-Toxic
- Activity [12]: Active
- AUC [13]: 1310 ng·h/mL
- pIC50 [14]: 6.82
- Activity [15]: Active
- Activity [16]: Active
- half-life [17]: 3.72 h
- Activity [18]: inactive
- Activity [19]: Active
- AUC [20]: 477 ng·h/mL
- MRT [21]: 4.45 h
- Activity [22]: Dose-Dependent Effect
- Activity [23]: Tde
- Activity (A2780 [24]): Active
- Activity [25]: Active
- AUC [26]: 1740 ng·h/mL
- Tmax [27]: 4.8 min
- Activity [28]: Active
- Cmax [29]: 3190 ng/mL
- half-life [30]: 5.41 h
- Cmax [31]: 1080 ng/mL
- Tmax [32]: 5 h
- pIC50 (CT26): 6.17
- TGI (A2780 [33]): 88.1%
- Activity (A2780 [34]): Active
- pIC50 (A2780 [35]): 8.82
- Cmax [36]: 417 ng/mL
- Activity [37]: Non-Toxic
- half-life [38]: 6.53 h
- Activity [39]: Non-Toxic
- Cmax [40]: 250 ng/mL
- MRT [41]: 7.51 h
